Data: BigSolDB 2.1

Which solubility (mole fraction) (in DMSO, 293.15 K) does the source give for `NC(=O)N/N=C/c1ccc([N+](=O)[O-])o1` here?
The solubility (mole fraction) was 0.0448.

What about the solubility (mole fraction) (in DMSO, 298.15 K) of the same molecule?
The solubility (mole fraction) was 0.0469.

What about the solubility (mole fraction) (in DMSO, 303.15 K) of the same molecule?
The solubility (mole fraction) was 0.0493.

And the solubility (mole fraction) (in DMSO, 308.15 K)?
The solubility (mole fraction) was 0.053.

What about the solubility (mole fraction) (in DMSO, 313.15 K) of the same molecule?
The solubility (mole fraction) was 0.0577.

What about the solubility (mole fraction) (in DMSO, 318.15 K) of the same molecule?
Its solubility (mole fraction) is 0.0636.

And the solubility (mole fraction) (in DMSO, 323.15 K)?
Its solubility (mole fraction) is 0.0709.

And the solubility (mole fraction) (in NMP, 278.15 K)?
Its solubility (mole fraction) is 0.0317.

And the solubility (mole fraction) (in NMP, 283.15 K)?
The solubility (mole fraction) was 0.0354.

And the solubility (mole fraction) (in NMP, 288.15 K)?
Its solubility (mole fraction) is 0.0396.

What about the solubility (mole fraction) (in NMP, 293.15 K) of the same molecule?
The solubility (mole fraction) was 0.0457.

And the solubility (mole fraction) (in NMP, 298.15 K)?
Its solubility (mole fraction) is 0.0522.

What about the solubility (mole fraction) (in NMP, 303.15 K) of the same molecule?
The solubility (mole fraction) was 0.0591.

What about the solubility (mole fraction) (in NMP, 308.15 K) of the same molecule?
Its solubility (mole fraction) is 0.0662.

And the solubility (mole fraction) (in NMP, 313.15 K)?
The solubility (mole fraction) was 0.075.

And the solubility (mole fraction) (in NMP, 318.15 K)?
Its solubility (mole fraction) is 0.0853.

And the solubility (mole fraction) (in NMP, 323.15 K)?
Its solubility (mole fraction) is 0.0985.

And the solubility (mole fraction) (in ethanol, 278.15 K)?
The solubility (mole fraction) was 6.72e-05.

And the solubility (mole fraction) (in ethanol, 283.15 K)?
Its solubility (mole fraction) is 8.38e-05.

What about the solubility (mole fraction) (in ethanol, 288.15 K) of the same molecule?
Its solubility (mole fraction) is 0.000102.

What about the solubility (mole fraction) (in ethanol, 293.15 K) of the same molecule?
Its solubility (mole fraction) is 0.000123.

And the solubility (mole fraction) (in ethanol, 298.15 K)?
The solubility (mole fraction) was 0.000149.

What about the solubility (mole fraction) (in ethanol, 303.15 K) of the same molecule?
Its solubility (mole fraction) is 0.000178.

What about the solubility (mole fraction) (in ethanol, 308.15 K) of the same molecule?
Its solubility (mole fraction) is 0.000213.

And the solubility (mole fraction) (in ethanol, 313.15 K)?
Its solubility (mole fraction) is 0.000258.

What about the solubility (mole fraction) (in ethanol, 318.15 K) of the same molecule?
The solubility (mole fraction) was 0.000303.

What about the solubility (mole fraction) (in ethanol, 323.15 K) of the same molecule?
The solubility (mole fraction) was 0.000364.

What about the solubility (mole fraction) (in isopropanol, 278.15 K) of the same molecule?
Its solubility (mole fraction) is 6.89e-05.

What about the solubility (mole fraction) (in isopropanol, 283.15 K) of the same molecule?
Its solubility (mole fraction) is 8.99e-05.

And the solubility (mole fraction) (in isopropanol, 288.15 K)?
The solubility (mole fraction) was 0.000117.

What about the solubility (mole fraction) (in isopropanol, 293.15 K) of the same molecule?
Its solubility (mole fraction) is 0.000138.

What about the solubility (mole fraction) (in isopropanol, 298.15 K) of the same molecule?
Its solubility (mole fraction) is 0.000175.

What about the solubility (mole fraction) (in isopropanol, 303.15 K) of the same molecule?
The solubility (mole fraction) was 0.000223.

And the solubility (mole fraction) (in isopropanol, 308.15 K)?
The solubility (mole fraction) was 0.00027.

What about the solubility (mole fraction) (in isopropanol, 313.15 K) of the same molecule?
Its solubility (mole fraction) is 0.000331.

And the solubility (mole fraction) (in isopropanol, 318.15 K)?
The solubility (mole fraction) was 0.00039.

And the solubility (mole fraction) (in isopropanol, 323.15 K)?
Its solubility (mole fraction) is 0.000484.

What about the solubility (mole fraction) (in water, 278.15 K) of the same molecule?
The solubility (mole fraction) was 1.32e-05.

What about the solubility (mole fraction) (in water, 283.15 K) of the same molecule?
Its solubility (mole fraction) is 1.66e-05.

And the solubility (mole fraction) (in water, 288.15 K)?
Its solubility (mole fraction) is 1.96e-05.

And the solubility (mole fraction) (in water, 293.15 K)?
The solubility (mole fraction) was 2.46e-05.

And the solubility (mole fraction) (in water, 298.15 K)?
Its solubility (mole fraction) is 2.98e-05.

And the solubility (mole fraction) (in water, 303.15 K)?
Its solubility (mole fraction) is 3.66e-05.

What about the solubility (mole fraction) (in water, 308.15 K) of the same molecule?
The solubility (mole fraction) was 4.5e-05.

What about the solubility (mole fraction) (in water, 313.15 K) of the same molecule?
Its solubility (mole fraction) is 5.75e-05.

What about the solubility (mole fraction) (in water, 318.15 K) of the same molecule?
The solubility (mole fraction) was 6.84e-05.

What about the solubility (mole fraction) (in water, 323.15 K) of the same molecule?
The solubility (mole fraction) was 8.47e-05.
